In the NIST ThermoML archive (doi:10.1016/j.tca.2005.08.012):

What was measured:
[1] = xn = mol fraction of the nth substance listed; conditions: 101 kPa, Liquid, Vibrating tube method
[2] = 101.33 kPa, Liquid, Vibrating tube method

CCCNCCC [dipropylamine] + C1CCCCC1
mass density [kg/m3], [1]
Conditions | x1 = 0.0114 | x1 = 0.0213 | x1 = 0.0321 | x1 = 0.0414 | x1 = 0.0509 | x1 = 0.0622 | x1 = 0.0727 | x1 = 0.0811 | x1 = 0.0919
303.15 K | 768.31 | 767.65 | 766.94 | 766.29 | 765.71 | 764.96 | 764.29 | 763.78 | 763.13
313.15 K | 758.72 | 758.03 | 757.3 | 756.67 | 756.07 | 755.34 | 754.66 | 754.17 | 753.52

CCCCN [1-butanamine]
[2]
Conditions | mass density [kg/m3]
303.15 K | 728.65
313.15 K | 719.17

CCCCN [1-butanamine] + c1ccccc1
mass density [kg/m3], [1]
Conditions | x1 = 0.0094 | x1 = 0.0195 | x1 = 0.0284 | x1 = 0.038 | x1 = 0.048 | x1 = 0.0588 | x1 = 0.0669 | x1 = 0.0764 | x1 = 0.0859
303.15 K | 866.8 | 865.19 | 863.77 | 862.3 | 860.74 | 859.06 | 857.8 | 856.32 | 854.84
313.15 K | 856.12 | 854.55 | 853.17 | 851.7 | 850.16 | 848.5 | 847.27 | 845.82 | 844.4

CCN(CC)CC [triethylamine] + c1ccccc1
mass density [kg/m3], [1]
Conditions | x1 = 0.0102 | x1 = 0.0209 | x1 = 0.0311 | x1 = 0.0395 | x1 = 0.0501 | x1 = 0.0618 | x1 = 0.0712 | x1 = 0.0804 | x1 = 0.0919 | x1 = 0.1
303.15 K | 865.85 | 863.38 | 861.03 | 859.07 | 856.75 | 854.1 | 851.95 | 850 | 847.45 | 845.76
313.15 K | 855.14 | 852.62 | 850.24 | 848.31 | 845.93 | 843.31 | 841.23 | 839.27 | 836.79 | 835.08

CCCN [propan-1-amine]
[2]
Conditions | mass density [kg/m3]
303.15 K | 706.1
313.15 K | 696.04

CCCCN(CCCC)CCCC [tributylamine] + C1CCCCC1
mass density [kg/m3], [1]
Conditions | x1 = 0.0103 | x1 = 0.0216 | x1 = 0.0318 | x1 = 0.0402 | x1 = 0.0516 | x1 = 0.0598 | x1 = 0.0709 | x1 = 0.0807 | x1 = 0.0861
303.15 K | 768.92 | 768.75 | 768.65 | 768.57 | 768.46 | 768.38 | 768.26 | 768.18 | 768.14
313.15 K | 759.38 | 759.25 | 759.17 | 759.09 | 758.99 | 758.97 | 758.92 | 758.91 | 758.99

CCCNCCC [dipropylamine] + c1ccccc1
mass density [kg/m3], [1]
Conditions | x1 = 0.0105 | x1 = 0.0207 | x1 = 0.0306 | x1 = 0.039 | x1 = 0.0508 | x1 = 0.0614 | x1 = 0.0723 | x1 = 0.0812 | x1 = 0.0917
303.15 K | 865.97 | 863.74 | 861.67 | 859.91 | 857.5 | 855.36 | 853.17 | 851.42 | 849.36
313.15 K | 855.38 | 853.26 | 851.24 | 849.55 | 847.19 | 845.11 | 843 | 841.29 | 839.28

CCCN(CCC)CCC [tripropylamine] + C1CCCCC1
mass density [kg/m3], [1]
Conditions | x1 = 0.0109 | x1 = 0.02 | x1 = 0.0305 | x1 = 0.0406 | x1 = 0.0511 | x1 = 0.0596 | x1 = 0.0693 | x1 = 0.0787 | x1 = 0.0878
303.15 K | 768.54 | 768.11 | 767.6 | 767.14 | 766.65 | 766.35 | 765.93 | 765.54 | 765.16
313.15 K | 758.99 | 758.57 | 758.14 | 757.71 | 757.28 | 756.93 | 756.56 | 756.18 | 755.84

CCCN(CCC)CCC [tripropylamine]
[2]
Conditions | mass density [kg/m3]
303.15 K | 749.15
313.15 K | 740.41

CCCN [propan-1-amine] + c1ccccc1
mass density [kg/m3], [1]
Conditions | x1 = 0.0079 | x1 = 0.0186 | x1 = 0.028 | x1 = 0.0366 | x1 = 0.047 | x1 = 0.0579 | x1 = 0.0659 | x1 = 0.0759 | x1 = 0.0844
303.15 K | 867.07 | 865.41 | 863.91 | 862.58 | 860.86 | 859.18 | 857.86 | 856.37 | 854.97
313.15 K | 856.39 | 854.75 | 853.34 | 852.02 | 850.44 | 848.78 | 847.56 | 846.03 | 844.73
